Test results taken from patent US20080279819A1, “Combinations Therapy for Treatment of Demyelinating Conditions” (Adamas Pharmaceuticals, Inc., priority 2005, published 2008).

Columns and labels:
[1] = five doses at about 0.25 to about 1 mg/kg intravenous, 14 day interval; cited from earlier work
[2] = Release profile of memantine and atorvastatin combination (cumulative fraction released); assay type: physicochemical; conditions: released from formulation matrix, USP II Paddle, water
Source text: The cumulative fraction is the amount of drug substance released from the formulation matrix to the serum or gut environment (e.g., U.S. Pat. No. 4,839,177) or as measured with a USP II Paddle system using water as the dissolution medium.

| cum. fraction ([2]; Time 1) | cum. fraction ([2]; Time 2) | cum. fraction ([2]; Time 4) | cum. fraction ([2]; Time 8) | cum. fraction ([2]; Time 12) | cum. fraction ([2]; Time 16) | cum. fraction ([2]; Time 20) | cum. fraction ([2]; Time 24) | Molecule | Peak serum concentrations [1] [µg/mL] |
| --- | --- | --- | --- | --- | --- | --- | --- | --- | --- |
|  |  |  |  |  |  |  |  | daclizumab: multiple sclerosis agent daclizumab (ZENAPAX), given intravenously | 21 to 32 |
| 0.15 | 0.30 | 0.45 | 0.60 | 0.75 | 0.90 | 0.98 | 0.99 | CC(C)c1c(C(=O)Nc2ccccc2)c(-c2ccccc2)c(-c2ccc(F)cc2)n1CC[C@@H](O)C[C@@H](O)CC(=O)O [ATORVASTATIN, atorvastatin] |  |
